Several values for one entry are separate records, joined by “and”; a condition that tells them apart may be missing. Identical values can stand only once. Values belong to the compound of their own block, whether it stands above or below them.
How the values were obtained:
[1] = tested on: microsomal pellet from chicory roots; experiment: Conversion of (+)-valencene by a microsomal pellet of chicory in the presence of NADPH; settings: 100% = hydroxylation rate of β-selinene, 60 min
Experimental: The enzyme suspension was divided in 1 mL aliquots and incubated with 50 μM (+)-valencene in the presence of a 1 mM NADPH-regenerating system that consisted of 1 mM NADPH, 5 mM glucose-6-phosphate, and 1.2 IU glucose-6-phosphate cehydrogenase. The initial concentration of substrate in each assay was 45 μM and all experiments were done in duplicate. To the blank assays no NADPH regenerating system was added, so that cytochrome P450 enzymes (including the (+)-germacrene A hydroxylase) were not active. After 60 minutes the incubations were stopped by storing them at −20° C. in a freezer.

[2] = tested on: (+)-germacrene A hydroxylase; experiment: Competitive inhibition of hydroxylation by 50 μM (+)-germacrene A or 50 μM α-cubebene; settings: amorpha-4,11-diene alcohol (KI 1720), germacrene B alcohol (KI 1700)
[3] = tested on: NAD(P)+-dependent dehydrogenase(s); experiment: Oxidation of alcohols by 150,000 g supernatant of chicory roots with NAD(P)+; assay type: biochemical, Cichorium intybus L.; settings: 100 μM substrate
Experimental: It was assumed that this β-nootkatol is an intermediate in the formation of nootkatone. For this reason incubations of 100 μM β-nootkatol were performed at pH 10 with NAD(P)^+and a 150,000 g supernatant of chicory roots, such as described for the conversion of (−)-elema-1,3,11(13)-12-ol and germacra-1(10),4,11(13)-trien-12-ol by NADP^+-dependent dehydrogenases by De Kraker et al. (2001). During incubation the added β-nootkatol was converted for more than 60% into nootkatone in the presence of either 1 mM NADP^+ or 1 mM NAD^+. In the absence of these cofactors conversion still amounted to 25%, whereas the boiled enzyme extract gave no conversion of β-nootkatol. At pH 7.5, enzyme activity was slightlylower, whereas a 150,000 g pellet, as expected, yielded 3-fold less dehydrogenase activity than the corresponding supernatant.
To get some more information about the substrate specificity of the dehydrogenase(s) present in chicory roots, incubations with the 150,000 g supernatant were also performed with 100 μM trans,trans-farnesol as substrate (FIG. 19) in the presence of either NAD^+ or NADP^+. Trans,trans-farnesol was converted up to 60% into a mixture of trans,trans-farnesal and cis,trans-farnesal, and small amounts of farnesoic acid were observed as well.

SMILES: C=C(C)[C@@H]1CCC2=CCC[C@@H](C)[C@]2(C)C1 [(+)-valencene]
Relative conversion to nootkatone [1]: 24.4% and 24.4 ± 1.1%
Relative conversion to valencen-12-ol [1]: 2.61% and 2.6 ± 0.1%

Inhibition (%) ± SD, Germacrene A, second product ([2]; 50 μM (+)-germacrene A added): 100.0%
Inhibition (%) ± SD, α-Cubebene, second product ([2]; 50 μM α-cubebene added): 27.3 ± 10%
SMILES: CC(C)=C1C/C=C(\C)CC/C=C(\C)CC1 [germacrene B]

Conversion into nootkatone ([3]; pH 10, 1 mM NADP+ or 1 mM NAD+, 150,000 g supernatant): more than 60%
Conversion into nootkatone in the absence of cofactors ([3]; pH 10, no NAD(P)+): 25%
SMILES: C=C(C)[C@@H]1CCC2=C[C@@H](O)C[C@@H](C)[C@]2(C)C1 [β-nootkatol]

— US7214507B2, “Plant enzymes for bioconversion” (Plant Research International B.V., priority 2001, dated 2007)
